The structures appear in SMILES notation.

The target of assay [1] is T1, hCRTH2 receptor (Homo sapiens, UniProt Q9Y5Y4).
T1 construct: expressed in transfected cells; host or cells: HEK293 (recombinant HEK293-hCRTH2), membrane fragments
T1 sequence (Q9Y5Y4 1-395): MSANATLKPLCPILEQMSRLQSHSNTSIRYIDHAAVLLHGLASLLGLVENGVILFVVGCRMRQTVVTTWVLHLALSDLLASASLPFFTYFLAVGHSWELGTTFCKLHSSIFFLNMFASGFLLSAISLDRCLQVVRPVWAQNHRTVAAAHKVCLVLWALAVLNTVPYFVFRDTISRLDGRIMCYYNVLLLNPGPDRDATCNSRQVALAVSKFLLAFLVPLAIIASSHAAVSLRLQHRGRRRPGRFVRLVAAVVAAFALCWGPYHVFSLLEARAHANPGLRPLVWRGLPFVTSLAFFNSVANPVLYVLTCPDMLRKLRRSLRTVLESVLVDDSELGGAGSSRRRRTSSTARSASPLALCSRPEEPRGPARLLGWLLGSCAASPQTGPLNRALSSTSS
As to the kind of experiment: hCRTH2 receptor membranes radioligand displacement assay. Particulars: displacement of 3H-PGD2 (2.5 nM), HEK293-hCRTH2 membrane fragments, Binding-Buffer with 0.1% BSA. As for the experimental part: Preparation of hCRTH2 Receptor Membranes and Radioligand Displacement Assay:
(§1) First, recombinant HEK293-hCRTH2 cells were detached from culture plates into 5 ml buffer A/plate (Buffer A: 5 mM Tris, 1 mM MgCl2-6H2O pH=7.4) using a rubber policeman. Cells were then transferred into centrifugation tubes and centrifuged for 5 min at 400 g. The cell pellet was resuspended in the same buffer and tubes were frozen at 80° C. Cells were thawed and membrane fragments were generated by homogenization using a polytron homogenizer (30 seconds). The membrane fragments were then centrifuged at 3000 g for 20 minutes and resuspended in buffer C (Buffer C: 75 mM Tris, 25 mM MgCl2, 250 mM Saccharose pH 7.4). Aliquots of membrane fragments were stored at −20° C.
(§2) Binding assay was performed in a final assay volume of 250 μl. First, 25 μl of test compound, previously diluted in Binding-Buffer (Binding-Buffer: 50 mM Tris-Base, 100 mM NaCl, 1 mM EDTA, 0.1% BSA (protease free), 0.01% NaN3, 10 mM MnCl2 pH 7.0) was placed into each well. After addition of 75 μl Binding-Buffer, 50 μl of the radioligand ^3H-PGD2 (at 2.5 nM (220.000 dpm/well) from ANAWA ART0662) was added to each well. Binding assay was started by addition of 100 μl CRTH2 membrane fragments, reaching a final concentration of 20 μg/well. For non-specific binding, PGD2 was added to the reaction mixture to […] final concentration. This assay mix was incubated for 90 minutes at room temperature and then filtered through a GF/C filter 96-well plate which was pre-soaked for 3 hours in 0.5% polyethyleneimine (PEI). The filter-wells were washed three times with ice cold Binding-Buffer. Then, 40 μl of Microscint-40 (Packard) was added to each well and the retained radioactivity quantified in a Topcount (Packard).
For orientation: Loss of bound radioactivity is the signal in a displacement assay; it reports binding, not function.

Assay [2] addresses T1, hCRTH2 receptor. As to the kind of experiment: Radioligand displacement assay in presence of human serum albumin (HSA). Particulars: displacement of 3H-PGD2, Binding-Buffer with 0.5% human serum albumin instead of 0.1% BSA. As for the experimental part: as §1, §2
Radioligand Displacement Assay-Human Serum Albumin (HSA):
Radioligand displacement assay in presence of human serum albumin (HSA) was performed as described above, with following modifications. Binding-Buffer-HSA: Binding-buffer+0.5% Sigma Albumin from Human serum A1887 (instead of 0.1% BSA). A volume of 25 μl test compound, previously diluted in Binding-Buffer-HSA was placed into each well. After addition of 75 μl Binding-Buffer-HSA, 50 μl of ^3H-PGD2 (at 2.5 nM (220.000 dpm/well) from ANAWA ART0662) was added to each well. Remaining protocol was identical as described above.

Assay [3] relates to eosinophils (PGD2-induced shape change). As to the kind of experiment: Eosinophil shape change assay with human plasma. The assay is classed as cell-based. As to conditions: human polymorphonuclear cells, 50% human plasma, activated with PGD2 100 nM, flow cytometry forward-scatter. As for the experimental part: Eosinophil Shape Change Assay with Human Plasma
After obtaining informed consent, blood samples were drawn by venipuncture according to the protocol approved by the ethics committee of Basel, Switzerland. Polymorphonuclear leukocytes (containing eosinophils, basophils and neutrophils) were isolated using the Polymorphprep™ method (Axis-Shield). In brief, anticoagulated whole blood was layered onto a Polymorphprep gradient (density 1.113 g/ml) and centrifuged at 500 g for 30 min. The polymorphonuclear cell fraction was harvested and depleted for erythrocytes by hypotonic saline lysis.
The polymorphonuclear cells were resuspended in assay buffer (1×PBS with Ca^2+/Mg^2+ supplemented with 0.1% BSA, 10 mM HEPES, and 10 mM Glucose, pH 7.4) at 5×10^6 cells/ml and stained with anti-CD49d-APC ((APC=Allophycocyanin) for 1 hour at RT. Test compounds, at various concentrations, were preincubated 10 min in human plasma (anticoagulated with a thrombin inhibitor). Then, human plasma was added to the polymorphonuclear cells to 50% of final assay volume with polymorphonuclear cells at 4×10^6 cells/ml. After incubation for 10 minutes at 37° C., the polymorphonuclear cells were activated for 5 min at 37° C. by addition of PGD2 at 100 nM final concentration. Activation was stopped by addition of 0.5 ml paraformaldehyde (1%).
Immediately after fixation with paraformaldehyde, the samples were analyzed by FACSCanto flow cytometer (BD Biosciences) and target cells were identified by their forward-scatter (FSC) and side-scatter (SSC) characteristics. Eosinophils were identified by the anti-CD49d-APC signal and their characteristic side-scatter (SSC) profile. Shape change responses, indicative of eosinophil activation, were quantified as the percent of cells with an increased forward-scatter.
A general note: Flow cytometry measures light scatter and fluorescence of single cells or particles in a stream.

In general, IC50 refers to the concentration that inhibits the measured activity by half. `O=C(O)Cn1c2c(c3ncccc31)CC(Nc1ncc(Cl)cn1)CC2` (stereo not drawn) [Example 5, 2-(8-((5-chloropyrimidin-2-yl)-amino)-6,7,8,9-tetrahydro-5H-pyrido[3,2-b]indol-5-yl)acetic acid]: the results for the IC50 (on hCRTH2 receptor [1]; on hCRTH2 receptor [2]; in assay [3]) were 19 nM, 22 nM and 88 nM, respectively.
`CN(c1ncc(Cl)cn1)[C@H]1CCc2c(c3nc(F)ccc3n2CC(=O)O)C1` [Example 7, (S)-2-(8-((5-chloropyrimidin-2-yl)(methyl)amino)-2-fluoro-6,7,8,9-tetrahydro-5H-pyrido[3,2-b]indol-5-yl)acetic acid]: the IC50 at hCRTH2 receptor [1] was found to be 5.6 nM; at hCRTH2 receptor [2] it was 5 nM; in assay [3] it was 3.1 nM.
With `CN(c1ncc(Cl)cn1)[C@H]1CCc2c(c3ncccc3n2CC(=O)O)C1` [Example 6, (S)-2-(8-((5-chloropyrimidin-2-yl)(methyl)amino)-6,7,8,9-tetrahydro-5H-pyrido[3,2-b]indol-5-yl)acetic acid], the IC50 on hCRTH2 receptor [1] was determined as 2.3 nM; on hCRTH2 receptor [2], 2.1 nM; in assay [3] it was 5.8 nM.
Taken in the same sequence, the figures for `O=C(O)Cn1c2c(c3nc(F)ccc31)C[C@@H](Nc1ncc(Cl)cn1)CC2` [Example 8, (S)-2-(8-((5-chloropyrimidin-2-yl)amino)-2-fluoro-6,7,8,9-tetrahydro-5H-pyrido[3,2-b]indol-5-yl)acetic acid] were 19 nM, 22 nM and 32 nM.
On to `COc1ccc2c(n1)c1c(n2CC(=O)O)CCC(N(C)c2ncc(Cl)cn2)C1` (stereo not drawn) [Example 3, 2-(8-((5-chloropyrimidin-2-yl)(methyl)amino)-2-methoxy-6,7,8,9-tetrahydro-5H-pyrido[3,2-b]indol-5-yl)acetic acid], for which the IC50 at hCRTH2 receptor [1] came out at 13 nM; on hCRTH2 receptor [2] it was 13 nM; in assay [3], 148 nM.
`Cc1ccc2c(n1)c1c(n2CC(=O)O)CCC(N(C)c2ncc(Cl)cn2)C1` (stereo not drawn) [Example 1, 2-(8-((5-chloropyrimidin-2-yl)(methyl)amino)-2-methyl-6,7,8,9-tetrahydro-5H-pyrido[3,2-b]indol-5-yl)acetic acid]: the IC50 is 1.9 nM on hCRTH2 receptor [1], 3.9 nM at hCRTH2 receptor [2] and 71 nM in assay [3].
`CN(c1ncc(Cl)cn1)C1CCc2c(c3nc(C(F)(F)F)ccc3n2CC(=O)O)C1` (stereo not drawn) [Example 4, 2-(8-((5-chloropyrimidin-2-yl)(methyl)amino)-2-(trifluoromethyl)-6,7,8,9-tetrahydro-5H-pyrido[3,2-b]indol-5-yl)acetic acid]: the IC50 was determined as 10 nM at hCRTH2 receptor [1], 16 nM on hCRTH2 receptor [2] and 417 nM in assay [3].
Taken in the same sequence, the figures for `CN(c1ncc(Cl)cn1)C1CCc2c(c3nc(F)ccc3n2CC(=O)O)C1` (stereo not drawn) [Example 2, 2-(8-((5-chloropyrimidin-2-yl)(methyl)amino)-2-fluoro-6,7,8,9-tetrahydro-5H-pyrido[3,2-b]indol-5-yl)acetic acid] were 3.1 nM, 2.3 nM and 4.2 nM.

Source of the values: patent US9879006B2, “Azaindole acetic acid derivatives and their use as prostaglandin D2 receptor modulators” (IDORSIA PHARMACEUTICALS LTD, priority 2014, dated 2018).
